For this assay, the system named is BDF1 mice, Lewis lung carcinoma iv, survival T/C. Briefly: NCI In Vivo Anticancer Drug Screen. Data for tumor model Lewis Lung Carcinoma (intravenous) in B6D2F1 (BDF1) mice. Conditions: endpoint: median survival time, schedule: Q01DX009 (ip), higher = longer survival. The method, then: The antitumor activity of compounds was measured in mice bearing transplantable tumors. Survival or tumor size were measured and the results are expressed as the measurement made in the treated group (T) divided by the measurement made in the vehicle treated control group (C). The tumor model used in this assay is Lewis Lung Carcinoma (intravenous) in B6D2F1 (BDF1) mice

Setting [1] is: dose: 12.5 mg/kg/injection, vehicle: saline with Tween-80.
The mark [2] stands for this setting: dose: 25.0 mg/kg/injection, vehicle: saline with Tween-80.
Setting [3] is: dose: 50.0 mg/kg/injection, vehicle: saline with Tween-80.
[4] abbreviates: dose: 100.0 mg/kg/injection, vehicle: saline with Tween-80.
Setting [5] is: dose: 200.0 mg/kg/injection, vehicle: saline with Tween-80.
Where [6] appears, read: dose: 400.0 mg/kg/injection, vehicle: saline with Tween-80.
Where [7] appears, read: dose: 25.0 mg/kg/injection, vehicle: saline.
Where [8] appears, read: dose: 50.0 mg/kg/injection, vehicle: saline.
Setting [9] is: dose: 100.0 mg/kg/injection, vehicle: saline.
Where [10] appears, read: dose: 12.5 mg/kg/injection, vehicle: saline.
Setting [11] is: dose: 6.25 mg/kg/injection, vehicle: saline.
Setting [12] is: dose: 200.0 mg/kg/injection, vehicle: saline.
Setting [13] is: dose: 6.25 mg/kg/injection, vehicle: Klucel (hydroxypropylcellulose) (HPC).
The mark [14] stands for this setting: dose: 12.5 mg/kg/injection, vehicle: Klucel (hydroxypropylcellulose) (HPC).

“And” between values parts separate entries of the source, which are not always exact repeats. Equal values may be shown once. Toxic doses and inconclusive results are not listed.

`CN1C(=O)C(=Cc2ccc(O)cc2)C(=O)N(C)C1=O`: the T/C under setting [1] is 101 % of control; the T/C under setting [2] is 105 % of control; the T/C under setting [3] is 106 % of control; the T/C under setting [4] is 99 % of control; the T/C under setting [5] is 101 % of control; the T/C under setting [6] is 96 % of control.

In the case of `CC(C)n1cc2c(N)ncnc2n1`, the T/C is, setting by setting: under setting [7], 107 % of control; under setting [8], 112 % of control; under setting [9], 117 % of control.

Regarding `CCCNc1ncnc2c1cnn2C`, the T/C runs as follows: under setting [10], 100 % of control; under setting [7], 105 % of control; under setting [8], 109 % of control.

As to `CN1N=C(N)c2cn(C3OC(COP(=O)(O)O)C(O)C3O)c3ncnc1c23` (configuration not stated), the T/C is, setting by setting: (dose: 0.39 mg/kg/injection, vehicle: water) 100 % of control; (dose: 0.78 mg/kg/injection, vehicle: water) 92 % of control; (dose: 1.56 mg/kg/injection, vehicle: water) 86 % of control; (dose: 3.12 mg/kg/injection, vehicle: water) 93 % of control; (dose: 6.25 mg/kg/injection, vehicle: water) 99 % of control; (dose: 12.5 mg/kg/injection, vehicle: water) 99 % of control.

For `O=C(/C=C(\Cl)C(=O)NO)NO`, the T/C runs as follows: under setting [11], 124 % of control; under setting [10], 105 % of control; under setting [7], 105 % of control; under setting [8], 110 % of control; under setting [9], 115 % of control; under setting [12], 104 % of control.

As to `NC(=O)c1cn(C2OC(CO)C(O)C2O)c2ncnc(N)c12` (configuration not stated), the T/C was 95 % of control (dose: 0.38 mg/kg/injection, vehicle: Klucel (hydroxypropylcellulose) (HPC)); 101 % of control (dose: 0.75 mg/kg/injection, vehicle: Klucel (hydroxypropylcellulose) (HPC)); 92 % of control (dose: 1.5 mg/kg/injection, vehicle: Klucel (hydroxypropylcellulose) (HPC)).

Regarding `Cc1ccccc1N(CC1CO1)CC1CO1` (configuration not stated), the T/C by setting is: under setting [10], 106 % of control; under setting [7], 103 % of control; under setting [8], 109 % of control; under setting [9], 100 % of control; under setting [12], 110 % of control.

On to `C[C@]12CC[C@@H]3c4ccc(OC(=O)Cc5ccc(N(CCCl)CCCl)cc5)cc4CC[C@H]3[C@@H]1CC[C@@H]2OC(=O)Cc1ccc(N(CCCl)CCCl)cc1`, for which the T/C reads like this: under setting [1], 97 % of control; under setting [2], 104 % of control; under setting [3], 99 % of control; under setting [4], 91 % of control; under setting [5], 98 % of control; under setting [6], 100 % of control.

Turning to `CCN1/C(=C/C=C/C=C\C=C\c2sc3ccc4ccccc4c3[n+]2CC)Sc2ccc3ccccc3c21`, the T/C runs as follows: (dose: 0.08 mg/kg/injection, vehicle: saline with Tween-80) 101 % of control; (dose: 0.16 mg/kg/injection, vehicle: saline with Tween-80) 104 % of control; (dose: 0.31 mg/kg/injection, vehicle: saline with Tween-80) 98 % of control; (dose: 0.62 mg/kg/injection, vehicle: saline with Tween-80) 104 % of control; (dose: 1.25 mg/kg/injection, vehicle: saline with Tween-80) 105 % of control; (dose: 2.5 mg/kg/injection, vehicle: saline with Tween-80) 105 % of control.

`O=C(CN1CC1)NCCCCCCCCNC(=O)CN1CC1`: the T/C (dose: 3.13 mg/kg/injection, vehicle: Klucel (hydroxypropylcellulose) (HPC)) was 115 % of control; the T/C under setting [13] is 112 % of control; the T/C under setting [14] is 119 % of control.

Take `COc1cc2ccnc(/C=N\NC(N)=S)c2cc1OC`: the T/C is 101 % of control under setting [2], 97 % of control under setting [3], 92 % of control under setting [4] and 103 % of control under setting [5].

Regarding `OCCOCC(F)(F)F`, the T/C by setting is: (dose: 6.25 mg/kg/injection, vehicle: saline with Tween-80) 98 % of control; under setting [1], 86 % of control; under setting [2], 106 % of control; under setting [7], 89 % of control; under setting [3], 90 % of control; under setting [4], 102 % of control. The T/C under setting [5] is 103 % of control.

For the compound `Nc1ccnc(=O)[nH]1`, the T/C runs as follows: (dose: 32.0 mg/kg/injection, vehicle: Klucel (hydroxypropylcellulose) (HPC)) 111 % of control; (dose: 32.0 mg/kg/injection, vehicle: saline with Tween-80) 103 % of control; (dose: 64.0 mg/kg/injection, vehicle: Klucel (hydroxypropylcellulose) (HPC)) 98 % of control; (dose: 128.0 mg/kg/injection, vehicle: Klucel (hydroxypropylcellulose) (HPC)) 95 % of control; (dose: 256.0 mg/kg/injection, vehicle: Klucel (hydroxypropylcellulose) (HPC)) 102 % of control; (dose: 256.0 mg/kg/injection, vehicle: saline with Tween-80) 119 % of control. Moreover, the T/C is 86 % of control (dose: 512.0 mg/kg/injection, vehicle: Klucel (hydroxypropylcellulose) (HPC)) and 107 % of control (dose: 512.0 mg/kg/injection, vehicle: saline with Tween-80).

Take `C=C(Cl)C(=NC(C)(C)C)Nc1ccccc1C`: the T/C was 100 % of control (dose: 3.12 mg/kg/injection, vehicle: Klucel (hydroxypropylcellulose) (HPC)); 110 % of control under setting [13]; 107 % of control under setting [14]; 108 % of control (dose: 25.0 mg/kg/injection, vehicle: Klucel (hydroxypropylcellulose) (HPC)).

For the compound `[Cl][Mn][Cl]`, the T/C by setting is: (dose: 1.0 mg/kg/injection, vehicle: saline) 109 % of control; (dose: 2.0 mg/kg/injection, vehicle: saline) 99 % of control; (dose: 4.0 mg/kg/injection, vehicle: saline) 105 % of control and 90 % of control; (dose: 8.0 mg/kg/injection, vehicle: saline) 101 % of control and 121 % of control; (dose: 16.0 mg/kg/injection, vehicle: saline) 91 % of control and 101 % of control; (dose: 32.0 mg/kg/injection, vehicle: saline) 94 % of control and 98 % of control. The T/C (dose: 64.0 mg/kg/injection, vehicle: saline) is 96 % of control and 108 % of control.

Turning to `COc1nc(=O)n(C2C=CC(=O)O2)cc1F` (configuration not stated), the T/C runs as follows: under setting [11], 97 % of control; under setting [10], 102 % of control; under setting [7], 96 % of control; under setting [8], 102 % of control; under setting [9], 97 % of control.

As to `Nc1ccc2ccc(O)cc2c1`, the T/C reads like this: under setting [2], 100 % of control; under setting [3], 99 % of control; under setting [4], 91 % of control.

Consider `CCCCCCCCCCCCCCCCS(=O)CC(O)COC(=O)c1ccc(C(=O)OCC(O)CS(=O)CCCCCCCCCCCCCCCC)cc1` (configuration not stated), for which the T/C (dose: 12.5 mg/kg/injection, vehicle: saline + Tween-80 + alcohol) is 88 % of control; the T/C (dose: 25.0 mg/kg/injection, vehicle: saline + alcohol) was 95 % of control; the T/C (dose: 50.0 mg/kg/injection, vehicle: saline + Tween-80 + alcohol) is 95 % of control; the T/C (dose: 100.0 mg/kg/injection, vehicle: saline + Tween-80 + alcohol) is 92 % of control; the T/C (dose: 100.0 mg/kg/injection, vehicle: saline + alcohol) is 101 % of control; the T/C (dose: 200.0 mg/kg/injection, vehicle: saline + Tween-80 + alcohol) is 99 % of control. The T/C (dose: 200.0 mg/kg/injection, vehicle: saline + alcohol) is 218 % of control.

The record behind these values is PubChem BioAssay AID274 (DTP/NCI, 2004).
